Reference: the NIST ThermoML archive (doi:10.1016/j.jct.2005.02.004)

Assay: mn = molality of the nth substance listed, in mol/kg
Details: Liquid, Vibrating tube method

[Br-].[Br-].[Zn+2] [zinc bromide] + CO
Details | mass density [kg/m3]
348.24 K, 320 kPa, m1 = 0.05772 | 749.2
348.24 K, 338 kPa, m1 = 1.951 | 1012.66
348.24 K, 4981 kPa, m1 = 0.05772 | 755.32
348.24 K, 4997 kPa, m1 = 1.951 | 1018.61
348.24 K, 9997 kPa, m1 = 0.05772 | 761.44
348.24 K, 10010 kPa, m1 = 1.951 | 1024.67
348.24 K, 14982 kPa, m1 = 0.05772 | 767.11
348.24 K, 14997 kPa, m1 = 1.951 | 1030.41
348.24 K, 19995 kPa, m1 = 1.951 | 1035.89
348.24 K, 20002 kPa, m1 = 0.05772 | 772.47
348.24 K, 25006 kPa, m1 = 1.951 | 1041.15
348.24 K, 25019 kPa, m1 = 0.05772 | 777.52
348.24 K, 29980 kPa, m1 = 1.951 | 1046.17
348.24 K, 29988 kPa, m1 = 0.05772 | 782.26
348.24 K, 34988 kPa, m1 = 0.05772 | 786.8
348.24 K, 34988 kPa, m1 = 1.951 | 1051.04
348.24 K, 39992 kPa, m1 = 1.951 | 1055.74
348.24 K, 39996 kPa, m1 = 0.05772 | 791.14
373.24 K, 509 kPa, m1 = 0.3785 | 775.13
373.24 K, 510 kPa, m1 = 0.7158 | 822.07
373.24 K, 4989 kPa, m1 = 0.3785 | 782.12
373.24 K, 5012 kPa, m1 = 0.7158 | 828.98
373.24 K, 9999 kPa, m1 = 0.7158 | 836.05
373.24 K, 10005 kPa, m1 = 0.3785 | 789.3
373.24 K, 14990 kPa, m1 = 0.7158 | 842.63
373.24 K, 14993 kPa, m1 = 0.3785 | 795.89
373.24 K, 19988 kPa, m1 = 0.7158 | 848.79
373.24 K, 20013 kPa, m1 = 0.3785 | 802.08
373.24 K, 24986 kPa, m1 = 0.3785 | 807.84
373.24 K, 25005 kPa, m1 = 0.7158 | 854.61
373.24 K, 29988 kPa, m1 = 0.3785 | 813.28
373.24 K, 29996 kPa, m1 = 0.7158 | 860.06
373.24 K, 35005 kPa, m1 = 0.3785 | 818.47
373.24 K, 35010 kPa, m1 = 0.7158 | 865.28
373.24 K, 39999 kPa, m1 = 0.3785 | 823.36
373.24 K, 40008 kPa, m1 = 0.7158 | 870.23
373.25 K, 530 kPa, m1 = 0.05772 | 722.55
373.25 K, 5013 kPa, m1 = 0.05772 | 729.6
373.25 K, 10010 kPa, m1 = 0.05772 | 736.76
373.25 K, 14996 kPa, m1 = 0.05772 | 743.34
373.25 K, 20007 kPa, m1 = 0.05772 | 749.46
373.25 K, 25002 kPa, m1 = 0.05772 | 755.2
373.25 K, 29988 kPa, m1 = 0.05772 | 760.57
373.25 K, 35011 kPa, m1 = 0.05772 | 765.68
373.25 K, 40009 kPa, m1 = 0.05772 | 770.5
373.26 K, 510 kPa, m1 = 1.951 | 982.6
373.26 K, 4981 kPa, m1 = 1.951 | 989.17
373.26 K, 9999 kPa, m1 = 1.951 | 996.08
373.26 K, 14998 kPa, m1 = 1.951 | 1002.57
373.26 K, 19990 kPa, m1 = 1.951 | 1008.69
373.26 K, 25011 kPa, m1 = 1.951 | 1014.53
373.26 K, 29987 kPa, m1 = 1.951 | 1020.09
373.26 K, 34996 kPa, m1 = 1.951 | 1025.43
373.26 K, 39999 kPa, m1 = 1.951 | 1030.56
398.25 K, 874 kPa, m1 = 0.7158 | 791.54
398.25 K, 875 kPa, m1 = 0.3785 | 744.91
398.25 K, 4997 kPa, m1 = 0.7158 | 799.23
398.25 K, 5007 kPa, m1 = 0.3785 | 752.83
398.25 K, 9995 kPa, m1 = 0.7158 | 807.74
398.25 K, 9997 kPa, m1 = 0.3785 | 761.43
398.25 K, 14982 kPa, m1 = 0.7158 | 815.46
398.25 K, 15016 kPa, m1 = 0.3785 | 769.33
398.25 K, 19995 kPa, m1 = 0.7158 | 822.66
398.25 K, 19996 kPa, m1 = 0.3785 | 776.5
398.25 K, 25004 kPa, m1 = 0.7158 | 829.32
398.25 K, 25013 kPa, m1 = 0.3785 | 783.19
398.25 K, 29995 kPa, m1 = 0.3785 | 789.37
398.25 K, 29999 kPa, m1 = 0.7158 | 835.55
398.25 K, 34983 kPa, m1 = 0.7158 | 841.37
398.25 K, 34995 kPa, m1 = 0.3785 | 795.22
398.25 K, 39988 kPa, m1 = 0.7158 | 846.94
398.25 K, 40001 kPa, m1 = 0.3785 | 800.74
398.27 K, 890 kPa, m1 = 1.951 | 951.2
398.27 K, 899 kPa, m1 = 0.05772 | 692.91
398.27 K, 4987 kPa, m1 = 1.951 | 958.29
398.27 K, 5013 kPa, m1 = 0.05772 | 700.92
398.27 K, 9996 kPa, m1 = 1.951 | 966.33
398.27 K, 10001 kPa, m1 = 0.05772 | 709.63
398.27 K, 14992 kPa, m1 = 0.05772 | 717.48
398.27 K, 14992 kPa, m1 = 1.951 | 973.78
398.27 K, 19995 kPa, m1 = 0.05772 | 724.66
398.27 K, 20001 kPa, m1 = 1.951 | 980.78
398.27 K, 24985 kPa, m1 = 0.05772 | 731.27
398.27 K, 25015 kPa, m1 = 1.951 | 987.36
398.27 K, 29996 kPa, m1 = 1.951 | 993.57
398.27 K, 30002 kPa, m1 = 0.05772 | 737.46
398.27 K, 34980 kPa, m1 = 1.951 | 999.48
398.27 K, 34994 kPa, m1 = 0.05772 | 743.23
398.27 K, 39999 kPa, m1 = 0.05772 | 748.68
398.27 K, 40007 kPa, m1 = 1.951 | 1005.18
